Source: paper PMC8041777, “Protein kinase A controls the hexosamine pathway by tuning the feedback inhibition of GFAT-1” (Nature Communications, 2021)

Target: T1, GFAT-1 (human GFAT-1 isoform 2, hGFAT1) (Homo sapiens, UniProt Q06210)
T1 construct: gene GFPT1; full length, internal His6-tag between Gly299 and Asp300 (kept), expressed in Sf21 insect cells (MultiBac), Ni-NTA and SEC purified
Assay: GDH-coupled amidohydrolysis assay (APADH at […] nm)
Type: biochemical
Details: 10 mM L-Gln, 6 mM Frc6P, 1 mM APAD, 50 mM KCl, 100 mM potassium phosphate pH 7.5, 37 °C; allosteric feedback inhibitor, isomerase domain site

T1 sequence (Q06210 2-681 isoform Q06210-2): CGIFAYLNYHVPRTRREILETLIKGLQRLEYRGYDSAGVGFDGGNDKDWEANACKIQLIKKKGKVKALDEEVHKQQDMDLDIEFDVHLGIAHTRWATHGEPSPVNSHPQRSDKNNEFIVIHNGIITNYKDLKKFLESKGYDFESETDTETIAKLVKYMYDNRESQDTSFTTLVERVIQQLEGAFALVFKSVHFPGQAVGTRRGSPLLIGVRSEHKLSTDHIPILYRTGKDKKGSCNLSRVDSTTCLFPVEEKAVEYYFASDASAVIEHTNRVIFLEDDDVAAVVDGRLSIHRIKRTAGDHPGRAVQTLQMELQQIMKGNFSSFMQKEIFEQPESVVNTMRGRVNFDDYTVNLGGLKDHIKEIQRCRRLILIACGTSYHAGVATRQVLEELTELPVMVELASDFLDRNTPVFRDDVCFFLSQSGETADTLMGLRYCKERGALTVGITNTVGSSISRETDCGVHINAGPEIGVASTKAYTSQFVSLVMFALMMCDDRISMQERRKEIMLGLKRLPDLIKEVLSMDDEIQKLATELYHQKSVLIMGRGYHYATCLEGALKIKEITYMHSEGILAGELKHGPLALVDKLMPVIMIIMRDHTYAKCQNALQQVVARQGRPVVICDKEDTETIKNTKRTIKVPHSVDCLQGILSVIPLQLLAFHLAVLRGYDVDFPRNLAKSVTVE

- IC50: 41.4 −3.5/+3.9 µM
SMILES: CC(=O)N[C@H]1[C@@H](OP(=O)(O)OP(=O)(O)OC[C@H]2O[C@@H](n3ccc(=O)[nH]c3=O)[C@H](O)[C@@H]2O)O[C@H](CO)[C@@H](O)[C@@H]1O [UDP-GlcNAc]
